# Source: patent US8962694B2, “Composition for pest control” (priority 2006, dated 2015)
# Values joined by “and” are separate entries in the source; they are usually repeats but may differ in a detail not shown here. Identical values can stand only once.
# Experiments:
# [1] = system: cane toads; test: Trial 1 two-step test: ethanol anaesthesia, then pesticidal agent applied to dorsal surface; assay type: in vivo, Bufo marinus
# Description: Testing of the efficacy of various compositions for the purpose of cane toad extermination was conducted in two trials. The first trial comprised a “two-step” test in which subject toads were initially exposed to an anaesthetic agent and, once anaesthetised, exposed to a pesticidal agent (i.e. killing agent) in the presence of a suitable carrier. This two-step approach was undertaken to ensure the humane extermination of the animals.
# Subject animals were therefore exposed to an approximate total dose of 3-4 ml of materials, comprising 2-3 gm of an anaesthetising agent (i.e. ethanol) and up to 1.0 ml of the particular pesticidal agent to be tested. A mist of ethanol was applied (“primary treatment”) to the dorsal surface of the toad from a hand-held spray bottle. When the toad was stupefied, as judged by the inability of the animal to right itself onto its ventral surface when turned onto its back (generally 10-15 minutes after treatment), the test pesticidal agent was administered (“secondary treatment”) onto the animal's dorsal surface by means of a micropipette. The test pesticidal agent included chloroxylenol (i.e. 4-chloro 3,5-dimethyl phenol) in different carriers including ethanol, isopropanol, propanol and dilute solutions thereof. Animals were monitored continuously for their response to the treatment.
# [2] = system: cane toads; test: Trial 2 single spray application of test pesticidal compositions; assay type: in vivo, Bufo marinus
# Description: The tests conducted in the second trial involved a single spray application of various test pesticidal compositions on cane toads. A hand-operated spray bottle was used to deliver a single standard dose of 3.0-3.3 gm of the particular test pesticidal agent to the dorsal surface of each animal. Animals were subsequently continuously monitored for their response to the treatment.
# [3] = system: cane toads
# [4] = primary 100% ethanol 2.1-2.9 ml, secondary 5% chloroxylenol in 40% isopropanol/60% water, 1.0 ml, medium toads (90.0-139.9 gm)
# [5] = primary 100% ethanol 2.1-2.9 ml, secondary 5% chloroxylenol in 40% isopropanol/60% water, 1.0 ml, small toads (45.0-89.9 gm)
# [6] = primary 100% ethanol 2.1-2.9 ml, secondary 30% chloroxylenol in ethanol, 0.2 ml, small toads (45.0-89.9 gm)
# [7] = primary 100% ethanol 2.1-2.9 ml, secondary 30% chloroxylenol in ethanol, 0.5 ml, small toads (45.0-89.9 gm)
# [8] = primary 100% ethanol 2.1 ml, secondary 15% chloroxylenol in 60% isopropanol/40% water, 1.0 ml, small toads (45.0-89.9 gm)
# [9] = large toads (≧140 gm), carrier 40% ethanol with 60% isopropanol, chloroxylenol content 3.75%
# [10] = large toads (≧140 gm), carrier 40% ethanol with 60% isopropanol, chloroxylenol content 5.00%
# [11] = large toads (≧140 gm), carrier 60% ethanol with 40% isopropanol, chloroxylenol content 5.00%
# [12] = large toads (≧140 gm), carrier 70% ethanol with 30% isopropanol, chloroxylenol content 2.00%
# [13] = large toads (≧140 gm), carrier 70% ethanol with 30% isopropanol, chloroxylenol content 2.50%
# [14] = large toads (≧140 gm), carrier 80% ethanol with 20% isopropanol, chloroxylenol content 2.50%
# [15] = large toads (≧140 gm), carrier 80% ethanol with 20% isopropanol, chloroxylenol content 3.75%
# [16] = large toads (≧140 gm), carrier 80% ethanol with 20% isopropanol, chloroxylenol content 5.00%
# [17] = medium size toads (90.0-139.9 gm), carrier 40% ethanol with 60% isopropanol, chloroxylenol content 3.75%
# [18] = medium size toads (90.0-139.9 gm), carrier 40% ethanol with 60% isopropanol, chloroxylenol content 5.00%
# [19] = medium size toads (90.0-139.9 gm), carrier 60% ethanol with 40% isopropanol, chloroxylenol content 5.00%
# [20] = medium size toads (90.0-139.9 gm), carrier 70% ethanol with 30% isopropanol, chloroxylenol content 2.00%
# [21] = medium size toads (90.0-139.9 gm), carrier 70% ethanol with 30% isopropanol, chloroxylenol content 2.50%
# [22] = medium size toads (90.0-139.9 gm), carrier 80% ethanol with 20% isopropanol, chloroxylenol content 2.50%
# [23] = medium size toads (90.0-139.9 gm), carrier 80% ethanol with 20% isopropanol, chloroxylenol content 3.75%
# [24] = medium size toads (90.0-139.9 gm), carrier 80% ethanol with 20% isopropanol, chloroxylenol content 5.00%
# [25] = pooled chloroxylenol concentrations and ethanol/propanol carriers (FIGS. 1 and 2)
# [26] = small toads (45.0-89.9 gm), carrier 60% ethanol with 40% isopropanol, chloroxylenol content 2.50%
# [27] = small toads (45.0-89.9 gm), carrier 60% ethanol with 40% isopropanol, chloroxylenol content 3.75%
# [28] = small toads (45.0-89.9 gm), carrier 60% ethanol with 40% isopropanol, chloroxylenol content 5.00%
# [29] = small toads (45.0-89.9 gm), carrier 70% ethanol in water, chloroxylenol content 2.50%
# [30] = small toads (45.0-89.9 gm), carrier 70% ethanol with 30% isopropanol, chloroxylenol content 2.50%
# [31] = small toads (45.0-89.9 gm), carrier 70% ethanol with 30% isopropanol, chloroxylenol content 3.75%
# [32] = small toads (45.0-89.9 gm), carrier 70% ethanol with 30% isopropanol, chloroxylenol content 5.00%
# [33] = small toads (45.0-89.9 gm), carrier 70% ethanol with 30% methanol, chloroxylenol content 2.50%
# [34] = small toads (45.0-89.9 gm), carrier 80% ethanol with 20% isopropanol, chloroxylenol content 2.50%
# [35] = small toads (45.0-89.9 gm), carrier 80% ethanol with 20% isopropanol, chloroxylenol content 3.75%
# [36] = small toads (45.0-89.9 gm), carrier 80% ethanol with 20% isopropanol, chloroxylenol content 5.00%
# [37] = small toads (45.0-89.9 gm), carrier 98% ethanol with 2% citral, chloroxylenol content 2.50%
# [38] = small toads (45.0-89.9 gm), carrier 100% ethanol, chloroxylenol content 0.50%, spray 3.0-3.3 gm
# [39] = small toads (45.0-89.9 gm), carrier 100% ethanol, chloroxylenol content 2.50%
# [40] = small toads (45.0-89.9 gm), carrier 100% ethanol, chloroxylenol content 5.00%
smiles,measurement,setting,value
"Cc1cc(O)cc(C)c1Cl [chloroxylenol, 4-chloro 3,5-dimethyl phenol]",ethanol-anaesthetised toads exterminated,"[1]; chloroxylenol in carriers (ethanol alone or dilutions of propanol), all toads treated (12)",12
same,mean time to death,[1]; [4],28 min
same,number died/number tested,[1]; [4],1/1
same,mean time to death,[1]; [5],30 min
same,number died/number tested,[1]; [5],5/5
same,mean time to death,[1]; [6],71 min
same,number died/number tested,[1]; [6],2/2
same,mean time to death,[1]; [7],64 min
same,number died/number tested,[1]; [7],2/2
same,mean time to death,[1]; [8],24 min
same,number died/number tested,[1]; [8],2/2
same,onset of death,[1]; two-step tests of Example 1,16 to 102 min
same,predicted time to kill toads of up to 200 gm weight,"[2]; 2.5% chloroxylenol, from fitted line of FIG. 2",less than 60 minutes
same,large toads killed/treated,[2]; compositions with 2.5% or more chloroxylenol,31/32
same,medium-sized toads killed,"[2]; compositions with 2.5% or more chloroxylenol, all toads treated (33)",33
same,mean time to death,[2]; [9],52 min
same,number died/number tested,[2]; [9],5/5
same,mean time to death,[2]; [10],47 min
same,number died/number tested,[2]; [10],4/4
same,mean time to death,[2]; [11],39 min
same,number died/number tested,[2]; [11],7/7
same,number died/number tested,"[2]; large toads (≧140 gm), carrier 70% ethanol with 30% isopropanol, chloroxylenol content 1.25%",0/7;
same,mean time to death,[2]; [12],50 min
same,number died/number tested,[2]; [12],7/7
same,mean time to death,[2]; [13],60 min
same,number died/number tested,[2]; [13],7/7
same,mean time to death,[2]; [14],91 min
same,number died/number tested,[2]; [14],1/1
same,mean time to death,[2]; [15],34 min
same,number died/number tested,[2]; [15],3/4
same,mean time to death,[2]; [16],53 min
same,number died/number tested,[2]; [16],4/4
same,mean time to death,[2]; [17],48 min
same,number died/number tested,[2]; [17],4/4
same,mean time to death,[2]; [18],46 min
same,number died/number tested,[2]; [18],4/4
same,mean time to death,[2]; [19],28 min
same,number died/number tested,[2]; [19],7/7
same,mean time to death,[2]; [20],65 min
same,number died/number tested,[2]; [20],5/5
same,mean time to death,[2]; [21],39 min
same,number died/number tested,[2]; [21],5/5
same,mean time to death,[2]; [22],37 min
same,number died/number tested,[2]; [22],5/5
same,mean time to death,[2]; [23],31 min
same,number died/number tested,[2]; [23],4/4
same,mean time to death,[2]; [24],52 min
same,number died/number tested,[2]; [24],4/4
same,tests in which a lethal outcome was achieved,"[2]; of 93 in total, three chloroxylenol concentrations in four propanol-ethanol carriers",92
same,large toads died within 40 minutes (number),[2]; [25],12/32
same,large toads died within 40 minutes (percent),[2]; [25],37%
same,large toads died within 60 minutes (number),[2]; [25],23/32
same,large toads died within 60 minutes (percent),[2]; [25],72%
same,medium toads died within 40 minutes (number),[2]; [25],25/33
same,medium toads died within 40 minutes (percent),[2]; [25],75%
same,medium toads died within 60 minutes (number),[2]; [25],30/33
same,medium toads died within 60 minutes (percent),[2]; [25],91%
same,small toads killed in <30 minutes (number),[2]; [25],22/28
same,small toads killed in <30 minutes (percent),[2]; [25],78%
same,"time to death, all medium sized toads",[2]; [25],≤ 102 min
same,"time to death, large toads, all but one",[2]; [25],≤ 120 min
same,"time to death, all small toads","[2]; pooled: 2.5%, 3.75%, 5% chloroxylenol in four ethanol/propanol carriers (FIGS. 1 and 2)",≤ 40 min
same,mean time to death,[2]; [26],27 min
same,number died/number tested,[2]; [26],3/3
same,mean time to death,[2]; [27],19 min
same,number died/number tested,[2]; [27],3/3
same,mean time to death,[2]; [28],21 min
same,number died/number tested,[2]; [28],5/5
same,mean time to death,[2]; [29],46 min
same,number died/number tested,[2]; [29],3/3
same,mean time to death,[2]; [30],26 min
same,number died/number tested,[2]; [30],3/3
same,mean time to death,[2]; [31],26 min
same,number died/number tested,[2]; [31],3/3
same,mean time to death,[2]; [32],22 min
same,number died/number tested,[2]; [32],3/3
same,mean time to death,[2]; [33],38 min
same,number died/number tested,[2]; [33],3/3
same,mean time to death,[2]; [34],25 min
same,number died/number tested,[2]; [34],2/2
same,mean time to death,[2]; [35],22 min
same,number died/number tested,[2]; [35],4/4
same,mean time to death,[2]; [36],16 min
same,number died/number tested,[2]; [36],2/2
same,mean time to death,[2]; [37],25 min
same,number died/number tested,[2]; [37],all three toads tested were killed and 3/3
same,mean time to death,[2]; [38],62 min
same,number died/number tested,[2]; [38],one third and 1/3
same,mean time to death,[2]; [39],28 min
same,number died/number tested,[2]; [39],3/3
same,mean time to death,[2]; [40],22 min
same,number died/number tested,[2]; [40],3/3
same,mean times to death,"[2]; small toads, ethanol as sole carrier or mixtures of ethanol and propanol, at least 2.5% chloroxylenol",less than 30 minutes
CCO [ethanol],"lag period before onset of anaesthesia (toad stupefied, unable to right itself)","[1]; mist of ethanol on dorsal surface, 2-3 gm",10 to 15 min
same,anaesthetic effect of topical application,[3]; toads of all sizes,rapid- and long-acting anaesthetic
same,lethality of ethanol alone,[3]; very small toads = less than about 45 gm,death only in some (but not all) very small toads
